Laboratory results published in PubChem BioAssay (NCI).
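Dose response: 5 concentrations. Exposure: 48 h. Format: 96-well plates. Endpoint: linear interpolation; highest concentration if not reached. GI50 marks 50% less growth. TGI denotes the concentration required for complete inhibition of growth.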

Legend:
Assay in all cases: inhibition of tumour cell growth, NCI panel, 48 h
LOX IMVI melanoma = system: LOX IMVI melanoma
RPMI-8226 leukemia = system: RPMI-8226 leukemia
K-562 leukemia = system: K-562 leukemia
MOLT-4 leukemia = system: MOLT-4 leukemia
A498 renal = system: A498 renal
A549 NSCLC = system: A549 NSCLC
M14 melanoma = system: M14 melanoma
HCT-15 colon = system: HCT-15 colon
SF-268 CNS = system: SF-268 CNS

Row | SMILES | TGI (LOX IMVI melanoma) [µM] | TGI (RPMI-8226 leukemia) [µM] | TGI (K-562 leukemia) [µM] | TGI (MOLT-4 leukemia) [µM] | TGI (A498 renal) [µM] | TGI (A549 NSCLC) [µM] | TGI (M14 melanoma) [µM] | TGI (HCT-15 colon) [µM] | TGI (SF-268 CNS) [µM] | GI50 (RPMI-8226 leukemia) [µM] | GI50 (K-562 leukemia) [µM] | GI50 (A498 renal) [µM] | GI50 (M14 melanoma) [µM] | GI50 (LOX IMVI melanoma) [µM] | GI50 (MOLT-4 leukemia) [µM] | GI50 (A549 NSCLC) [µM] | GI50 (HCT-15 colon) [µM] | GI50 (SF-268 CNS) [µM]
1 | COc1ccc(N2C(=O)CSC2c2cc(OC)c(OC)c(OC)c2)cc1 (stereo unspecified) | 92.9 | > 100 | > 100 | > 100 | 55.3 | 83.4 | 57.8 | 44.4 | > 100 |  |  |  |  |  |  |  |  | 
2 | NCCCN1CCN(CCCNc2ccc3ncn4c5ccccc5c(=O)c2c34)CC1 | 4.07 | > 25 | > 25 | > 25 | 5.63 | > 25 | 8.05 | > 25 | 6.04 |  |  |  |  |  |  |  |  | 
3 | CCOC(=O)c1c(C)n(CCN2CCN(C)CC2)c2ccc(OC)cc12 | 35.1 | 49.6 | 45.8 | 68 | 73.8 | > 100 | 30.8 | 95.8 | > 100 |  |  |  |  |  |  |  |  | 
4 | O=c1[nH]nc(Cc2ccc([N+](=O)[O-])cc2)[nH]1 | > 100 | > 100 | > 100 | > 100 | > 100 | > 100 | > 100 | > 100 | > 100 |  |  |  |  |  |  |  |  | 
5 | CC(CN(C)C)C(O)(c1ccccc1)c1ccccc1 (stereo unspecified) | > 100 | > 100 | > 100 | > 100 | > 100 | > 100 | > 100 | > 100 | > 100 |  |  |  |  |  |  |  |  | 
6 | CC1=C(C(=O)OC(C)C)C(c2cccc([N+](=O)[O-])c2)C(C(=O)OC(CO[N+](=O)[O-])CO[N+](=O)[O-])=C(C)N1 (stereo unspecified) | 11 | 3.6 | > 100 | 3.76 |  | > 100 | 12.7 | 19 | 22.7 |  |  |  |  |  |  |  |  | 
7 | C=C(Cl)C(=C)CCC(Cl)C(C)(C)Cl (stereo unspecified) | > 100 | > 100 | > 100 | > 100 | > 100 | > 100 | > 100 |  | > 100 |  |  |  |  |  |  |  |  | 
8 | Nc1ncc(Cc2nn3c(COc4ccc(Cl)cc4)nnc3s2)s1 |  | > 100 | > 100 | > 100 |  | > 100 | > 100 | 19.1 | > 100 |  |  |  |  |  |  |  |  | 
9 | Brc1ccc2[nH]cc(-c3nc(-c4c[nH]c5ccncc45)cs3)c2c1 |  | 5.23 | 3.38 |  | 3.22 |  | 3.42 |  |  | 2.48 | 0.98 | 1.81 | 1.83 |  |  |  |  | 
10 | C#Cc1ccccc1C(=O)OC | > 100 | > 100 | > 100 | > 100 | > 100 | > 100 | > 100 | > 100 |  |  |  |  |  |  |  |  |  | 
11 | Cc1nc2ccccc2n1CCc1nc2ccccc2[nH]1 | > 100 | > 100 | > 100 | > 100 | > 100 | > 100 | > 100 | > 100 | > 100 |  |  |  |  |  |  |  |  | 
12 | Cn1c(=O)c2[nH]cnc2n(C)c1=O | > 100 | > 100 | > 100 | > 100 |  | > 100 | > 100 | > 100 |  |  |  |  |  |  |  |  |  | 
13 | C=C1C[C@]23CC[C@@H]4C(CO)(CO)CC(=O)C[C@]4(C)[C@@H]2C(O)C[C@H]1C3 (stereo partly specified) | > 100 | > 100 | > 100 | > 100 |  | > 100 | > 100 | > 100 | > 100 |  |  |  |  |  |  |  |  | 
14 | C=C1C(=O)O[C@H]2[C@@H](O)[C@H](C)CCC/C(C)=C/CC[C@@]3(C)O[C@@H]3C[C@@H]12 | 19.3 | 25.7 | > 100 |  | 25.3 | > 60.9 | 18.4 | 4.68 | 22 |  |  |  |  |  |  |  |  | 
15 | COC(=O)[C@]12CCC(=O)N1[C@H](C(=O)O)Cc1c2[nH]c2ccccc12 | > 100 |  | > 100 | > 100 | > 100 | > 100 | > 100 | > 100 | > 100 |  |  |  |  |  |  |  |  | 
16 | CCOc1cc(C=Nc2ccc(Oc3ccc(Cl)cc3)c(Cl)c2)ccc1O | 39.9 | 82.8 |  | 67.3 | 36.6 | > 100 | 77.6 | 47.3 | 32 |  |  |  |  |  |  |  |  | 
17 | CC(C)=CCC/C(C)=C/CCC1(C)C2COC(=O)C21 (stereo unspecified) | 89 |  | 49.2 | > 100 | > 100 |  |  | > 100 | > 100 |  |  |  |  |  |  |  |  | 
18 | COc1cc(/C=C/C=C2\CC(C)C/C(=C\C=C\c3ccc(O)c(OC)c3)C2=O)ccc1O (stereo unspecified) | 65.1 | 48.1 | > 100 | 29.6 |  | > 100 | 46.9 | > 100 | > 100 |  |  |  |  |  |  |  |  | 
19 | CCCCCCCCCCCOCCC1C(C(C)OCCN2CCCC2)OC2OC(C)(C)OC21 (stereo unspecified) | 2.93 | 3.17 |  | 5.93 | 28.5 | 11.5 | 1.01 | 4.35 | 16 |  |  |  |  |  |  |  |  | 
20 | CCCCCCCCCC[C@@H](O)[C@H]1CC[C@@H]([C@H]2CC[C@H]([C@H](O)CCCCCCCCCC[C@@H]3CC(CC(C)=O)C(=O)O3)O2)O1 (stereo partly specified) | 27.3 | 26.2 |  | 40.6 | 97 | > 100 | 50.4 | > 100 | > 100 | 5.03 |  |  | 20 | 0.152 | 6.72 | 14.3 | 20.9 | 27.4
21 | CCCCN=C(OC1C=CCCC1)SC (stereo unspecified) |  | > 100 | > 100 | > 100 | > 100 | > 100 | > 100 | > 100 | > 100 |  |  |  |  |  |  |  |  | 
22 | CC(=O)N/N=C1\NN(C(C)=O)C2(S1)C(=O)Nc1ccccc12 (stereo unspecified) | > 100 | > 100 | > 100 | > 100 |  |  | > 100 | > 100 | > 100 |  |  |  |  |  |  |  |  | 
23 | c1csc(-c2csc(-c3cccs3)c2)c1 | > 100 | 57.1 |  | 89.2 | > 100 | > 100 | > 100 | > 100 | > 100 |  |  |  |  |  |  |  |  | 
24 | C=CC(=O)N1C/C(=C\c2ccc(F)cc2)C(=O)/C(=C/c2ccc(F)cc2)C1 | 0.415 |  | > 100 |  | 1.48 | 4.47 | 1.38 | 0.433 | 0.622 |  |  |  |  |  |  |  |  | 
25 | CCn1c2ccccc2c2cc(NC(=O)c3c(C)[nH]c(=O)[nH]c3=S)ccc21 | > 100 | > 100 | > 100 | > 100 | > 100 |  | 82.2 | > 100 |  |  |  |  |  |  |  |  |  | 
